The test system of series [1] is c-Met and c-Myc. The series is described as follows: Western blot of JHU029 tumor lysates. Type of series: in vivo, nude mice. To be noted: JHU029 xenograft tumors. On the procedure: Lysates from control, BME or M-I treated cells and tumors were prepared using 2 SDS sample buffer and subjected to western blot analysis using specific antibodies to c-Met (1:500, Cell Signaling Technology, CST, Denvers, Mass., USA,), phospho-STAT3 (pSTAT3-Tyr-705) (1:1000, CST), total STAT3 (1:1000, CST), c-Myc (1:1000, CST), surviving (1:500, Santa Cruz Biotechnology, SBT, Dallas, Tex., USA) and cyclin D1 (1: 500, SBT). HRP conjugated anti-mouse or anti-rabbit secondary antibodies were purchased from Bio-Rad (Hercules, Calif., USA). The blot was reprobed with HRP conjugated -actin antibody (1:5000; SBT) to compare protein load in each lane. Densitometry analysis was done using Image J software (NIH, Bethesda, Md., USA).
JHU029 or Ca127 cells (1.5 10^6) containing 40% Matrigel were injected subcutaneously into the flank of BALB/c athymic nude mice (7-8 weeks old). When the palpable tumor was developed (>60 mm3), mice were divided into three groups randomly, 5 mice in each group. The control group was without any treatment. The BME group received 30% (v/v) BME through drinking water. M-I group received 30 mg/kg dose of M-I once in day, every day. Body weight was monitored, and tumor size was measured using a slide caliper and volume was calculated using the formula 1/2 L X W2. After animal sacrifice tumors were dissected out and snap frozen in liquid nitrogen for further analysis. […]
A general note: A western blot detects proteins with antibodies after separation by electrophoresis.

The nature of series [2]: Toxicity study, 5 days. Type of series: in vivo. Particulars: BME 30% in drinking water. The procedure: For toxicity study, C57B1/6 male mice were received either 30% BME through drinking water or 20 mg/kg of M-I twice a day or 30 mg/kg of M-I once a day by IP injection for 5 days. There were three mice in each group, including untreated control. Blood was collected on day 6, and serum was prepared. Serum parameters related to hepatotoxicity (total bilirubin, alanine transaminase, aspartate transaminase, and alkaline phosphatase) and nephrotoxicity (urea and creatinine) were performed.

Series [3] concerns normal mammary epithelial cells. Briefly: Cytotoxicity in normal mammary epithelial cells. Type of series: cell-based, human.
Series [4] relates to MDA-MB-231 cells. The series is described as follows: Cell viability of MDA-MB-231 cells. Type of series: cell-based. Particulars: Homo sapiens, 72h. The procedure:
FIG. 8 illustrates 4T1 and MDA-MB-231 cells treated with M-I at indicated doses for 72h. The viability of control cells was arbitrarily set to 100%. Results shown are an average of three independent experiments. Data are represented as mean±SD.
The Inventors tested human MDA-MB-231 and mouse 4T1 cells in dose dependent manner (FIG. 8). […] The Inventors also tested other compounds in TNBC cell cytotoxicity assays, but these required much higher amounts (>[…]) even for ˜40% cell death.

Series [5] in a line: Pharmacokinetic study, single dose. Type of series: in vivo, mice. Particulars: for AUC (% Extrap): C57BI/6 male mice. On the procedure:
The pharmacokinetic (PK) study of M-I was performed in male C57B1/6 mice. A single dose of M-I (formulated at 2 mg/mL dissolved in 5% DMSO/95% of a 30% w:v Captisol solution) was administered either by intraperitoneal injection (IP group, n=3) or oral gavage (PO group, n=3). After dosing, 20 uL blood samples were collected into heparin pre-coated tubes at 5 min, 15 min, 30 min, 1 h, 2 h, 4 h, 6 h, 8 h and 24 h. Samples were centrifuged, and the plasma collected. M-I concentration was determined using liquid chromatography-mass spectrometry/mass spectrometry (LC-MS/MS) as described earlier (Fuerst et al. (2018) Chem.; 26, 4984-4995).

Series [6] relates to NK3.3 cells. The series is described as follows: NK-cell viability. Type of series: cell-based. On the procedure:
FIG. 9 illustrates NK3.3 cells treated with bitter melon extract or M-I and cell viability was measured at 48h or 72h after treatment. Results shown are an average of three independent experiments. Small bar indicates standard error. (* p <0.05)
NK cells are implicated in drug induced resistant cancer cells to drive tumor growth (Smalley et al., 2020). […] Bitter melon extract was used as a control. Control or M-I treated NK3.3 cells were also cocultured with MDA-MB-231 cells at 1:5 (Target:Effector) ratio for 24 h and stained for viable/dead cells. […] The apoptotic markers were further examined by Western blot analysis.

≈ marks a conversion by molar mass, not a printed value.

This note sets out measurements from US20230226079A1, “METHODS AND COMPOSITIONS FOR TREATMENT OF SOLID TUMORS” (Saint Louis University, priority 2022, published 2023).

The term IC50 denotes the midpoint of a concentration-inhibition curve. High values mean a need for much substance, low ones inhibition by little substance. In the case of `CC(C)=CC(O)CC(C)[C@H]1CC[C@@]2(C)[C@@H]3[C@@H](O)C=C4[C@@H](CC[C@H](O)C4(C)C)[C@]3(C=O)CC[C@]12C` (stereo partly drawn) [M-I, (3S, 7S, 8S, 9R, 10R, 13R, 14S, 17R) 3,7-dihydroxy-17-(4-hydroxy-6-methylhept-5-en-2-yl)-4,4,13,14-tetramethyl-2,3,7,8,10,11, 12,15, 16,17-decahydro-1H-cyclopenta[a]phenanthrene-9-carbaldehyde], the “expression of c-Met and c-Myc in tumors versus untreated control” value in series [1] is on record as “significant reduction”. In addition, the “body weight in toxicity study” value in series [2] (M-I 20 mg/kg twice a day or 30 mg/kg once a day IP, five days) is listed as “stable”. Further, in series [2] (blood on day six, M-I IP five days), the “serum total bilirubin, alanine transaminase, aspartate transaminase, alkaline phosphatase, creatinine, urea and glucose versus untreated control” value is on record as “comparable”. In addition, in series [3], the “effect on human normal mammary epithelial cells” value is “minimum effect”. Besides, in series [4], inhibition was half-maximal at 12 µg/mL (≈ 25.4 µM) (IC50). Also, in series [5] (20 mg/kg IP), the “adverse events after single dose, IP group” value was “No adverse events”. In addition, the “adverse events after single dose, oral group” value in series [5] (20 mg/kg PO, starting four hours post-dose, not resolved by 8 h, normal after twenty-four hours) is given as “loose stool”. The figures for the “AUC (% Extrap)” value in series [5] (20 mg/Kg IP) and in series [5] (20 mg/Kg PO) were 0.33 ± 0.08% and 6.84 ± 1.5%, respectively. Moreover, the NK-cell viability result in series [6] is “no cytotoxic effect”.
